# Assay results published in US7511146B2, “2-substituted benzimidazole piperidines analogs as selective melanin concentrating hormone receptor antagonists for the treatment of obesity and related disorders” (Schering Corporation, priority 2003, dated 2009).
# Biological target: T1, MCH receptor (Homo sapiens, UniProt Q99705)
# T1 construct: expressed in transfected cells; host or cells: CHO cells
# Assay: MCH Receptor Binding Assay ([125I]-MCH, SPA, membranes from CHO cells expressing the MCH receptor)
# Details: [125I]-MCH displacement, CHO cell membranes; read-out: Class (Ki, MCH receptor binding)
# Method: MCH Receptor Binding Assay:
# Membranes from CHO cells expressing the MCH receptor were prepared by lysing cells with 5 mM HEPES for 15 min at 4C. Cell lysates were centrifuged ([…], 15 min) and the pellet was resuspended in 5 mM HEPES. For each 96-well plate (Microlite, Dynex Technologies), 1 mg of cell membranes were incubated with 10 mg of wheat germ agglutinin SPA beads (Amersham) for 5 min at 4 C in a volume of 10 ml of binding buffer (25 mM HEPES, 10 mM MGCl2, 10 mM NaCl, 5 mM MnCl2, 0.1% BSA). The membrane/bead mixture was centrifuged (1500×g, 3.5 min), the supernatant was aspirated, and the pellet was resuspended in 10 ml binding buffer. The centrifugation, aspiration and resuspension were then repeated. The membrane/bead mixture (100 μl) was then added to 96-well plates containing 50 μl of 500 pM [^125I]-MCH (NEN) and […] of the appropriate concentration of compound (4× the desired final concentration). Nonspecific binding was determined by including 1 μM MCH in the binding reaction. The binding reaction was incubated at room temperature for 2 h. Plates were then analyzed in a TOPCOUNT microplate scintillation counter (Packard). Data was analyzed and Ki values were determined using GraphPad Prism.
# T1 sequence (Q99705 whole entry): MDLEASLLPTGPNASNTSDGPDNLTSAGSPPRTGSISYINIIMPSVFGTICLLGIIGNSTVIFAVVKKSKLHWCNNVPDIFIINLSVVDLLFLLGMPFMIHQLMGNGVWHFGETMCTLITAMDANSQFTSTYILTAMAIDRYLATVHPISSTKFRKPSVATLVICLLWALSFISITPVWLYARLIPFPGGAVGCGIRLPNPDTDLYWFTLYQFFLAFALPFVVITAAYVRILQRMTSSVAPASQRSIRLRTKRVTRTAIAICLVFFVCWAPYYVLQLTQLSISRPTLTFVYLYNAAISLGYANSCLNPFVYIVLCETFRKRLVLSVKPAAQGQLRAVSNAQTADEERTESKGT
row,Structure (SMILES),Ki [nM]
1,N#Cc1cccc(-c2ccc(C(OCc3nc4cc(F)c(Cl)cc4[nH]3)C3CCNCC3)cc2)c1 (centres unmarked) [Compound 33],20 to 50
2,N#Cc1cccc(-c2ccc(C3(CCc4nc5cc(Cl)c(F)cc5[nH]4)CCN(CC4CC4)CC3)cc2)c1 [Compound 11C],> 100
3,"CC(C)(C)OC(=O)N1CCC(OCc2nc3cc(F)c(F)cc3[nH]2)(c2ccc(-c3cccc(C#N)c3)cc2)CC1 [Compound 63, 4-(3′-Cyano-biphenyl-4-yl)-4-(5,6-difluoro-1H-benzoimidazol-2-ylmethoxy)-piperidine-1-carboxylic acid tert-butyl ester]",> 100
4,CC(=O)N1CCC(C(OCc2nc3cc(Cl)c(Cl)cc3[nH]2)c2ccc(-c3cccc(C#N)c3)cc2)CC1 (centres unmarked) [Compound 44],> 100
5,"N#Cc1cccc(-c2ccc(C3(COc4nc5cc(Cl)c(Cl)cc5[nH]4)CCN(CC4CC4)CC3)cc2)c1 [Compound 57, 4′-[1-Cyclopropylmethyl-4-(5,6-dichloro-1H-benzoimidazol-2-yloxymethyl)-piperidin-4-yl]-biphenyl-3-carbonitrile]",50 to 100
6,"CS(=O)(=O)N1CCC(COc2nc3cc(Cl)c(Cl)cc3[nH]2)(c2ccc(-c3cccc(C#N)c3)cc2)CC1 [Compound 56, 4′-[4-(5,6-Dichloro-1H-benzoimidazol-2-yloxymethyl)-1-methanesulfonyl-piperidin-4-yl]-biphenyl-3-carbonitrile]",> 100
7,N#Cc1cccc(-c2ccc(C3(CCc4nc5cc(Cl)c(F)cc5[nH]4)CCNCC3)cc2)c1 [Compound 11B],> 100
8,N#Cc1cccc(-c2ccc(C3(CCc4nc5cc(F)c(F)cc5[nH]4)CCN(CC4CC4)CC3)cc2)c1 [Compound 11A],> 100
9,N#Cc1cccc(-c2ccc(C(CSc3nc4cc(F)c(Cl)cc4[nH]3)C3CCNCC3)cc2)c1 (centres unmarked) [Compound 48],> 100
10,N#Cc1cccc(-c2ccc(C3(CNc4nc5cc(F)c(F)cc5[nH]4)CCNCC3)cc2)c1 [Compound 8A],20 to 50
11,"N#Cc1cccc(-c2ccc(C3(COc4nc5cc(Cl)c(Cl)cc5[nH]4)CCNCC3)cc2)c1 [Compound 54, 4′-[4-(5,6-Dichloro-1H-benzoimidazol-2-yloxymethyl)-piperidin-4-yl]-biphenyl-3-carbonitrile]",50 to 100
12,"CC(C)(C)OC(=O)N1CCC(COc2nc3cc(Cl)c(Cl)cc3[nH]2)(c2ccc(-c3cccc(C#N)c3)cc2)CC1 [Compound 53, 4-(3′-cyano-biphenyl-4-yl)-4-(5,6-dichloro-1H-benzoimidazol-2-yloxymethyl)-piperidine-1-carboxylic acid tert-butyl ester]",> 100
13,CS(=O)(=O)N1CCC(C(OCc2nc3cc(Cl)c(Cl)cc3[nH]2)c2ccc(-c3cccc(C#N)c3)cc2)CC1 (centres unmarked) [Compound 39],> 100
14,COC(=O)N1CCC(CNc2nc3cc(F)c(F)cc3[nH]2)(c2ccc(-c3cccc(C#N)c3)cc2)CC1 [Compound 8D],> 100
15,N#Cc1cccc(-c2ccc(C3(CNc4nc5cc(F)c(F)cc5[nH]4)CCN(CC4CC4)CC3)cc2)c1 [Compound 8B],20 to 50
16,N#Cc1cccc(-c2ccc(C3(CNc4nc5cc(F)c(F)cc5[nH]4)CCN(C4CCC4)CC3)cc2)c1 [Compound 8C],20 to 50
17,"CCNC(=O)N1CCC(COc2nc3cc(Cl)c(Cl)cc3[nH]2)(c2ccc(-c3cccc(C#N)c3)cc2)CC1 [Compound 58, 4-(3′-Cyano-biphenyl-4-yl)-4-(5,6-dichloro-1H-benzoimidazol-2-yloxymethyl)-piperidine-1-carboxylic acid ethylamide]",> 100

# More lines, now with the values ahead:
row,Ki [nM],Structure (SMILES)
1,20 to 50,N#Cc1cccc(-c2ccc(C(CCc3nc4c(Cl)cc(Cl)cc4[nH]3)C3CCN(Cc4ccccc4)CC3)cc2)c1 (centres unmarked) [Compound 75C]
2,< 20,N#Cc1cccc(-c2ccc(C(CNc3nc4cc(F)c(F)cc4[nH]3)C3CCN(Cc4ccccc4)CC3)cc2)c1 (centres unmarked) [Compound 28B]
3,20 to 50,N#Cc1cccc(-c2ccc(C(OCc3nc4cc(F)c(Cl)cc4[nH]3)C3CCN(Cc4ccccc4)CC3)cc2)c1 (centres unmarked) [Compound 34B]
4,> 100,N#Cc1cccc(-c2ccc(C3(NCc4nc5ccccc5[nH]4)CCN(C4CCCC4)CC3)cc2)c1 [Compound 67B]
5,20 to 50,N#Cc1cccc(-c2ccc(C(OCc3nc4cc(F)c(Cl)cc4[nH]3)C3CCN(CC4CC4)CC3)cc2)c1 (centres unmarked) [Compound 34A]
6,20 to 50,N#Cc1cccc(-c2ccc(C(OCc3nc4cc(F)c(Cl)cc4[nH]3)C3CCN(C4CCCC4)CC3)cc2)c1 (centres unmarked) [Compound 34C]
7,50 to 100,N#Cc1cccc(-c2ccc(C(CCc3nc4cc(Cl)c(Cl)cc4[nH]3)C3CCN(Cc4ccccc4)CC3)cc2)c1 (centres unmarked) [Compound 75A]
8,> 100,N#Cc1cccc(-c2ccc(C(OCc3nc4cc(F)c(Cl)cc4[nH]3)C3CCN(CCCCCO)CC3)cc2)c1 (centres unmarked) [Compound 34D]
9,20 to 50,N#Cc1cccc(-c2ccc(C(NCc3nc4cc(Cl)c(F)cc4[nH]3)C3CCNCC3)cc2)c1 (centres unmarked) [Compound 16B]
10,20 to 50,N#Cc1cccc(-c2ccc(C(NCc3nc4cc(Cl)c(F)cc4[nH]3)C3CCN(C4CCCC4)CC3)cc2)c1 (centres unmarked) [Compound 17B]
11,< 20,N#Cc1cccc(-c2ccc(C(NCc3nc4cc(Cl)c(Cl)cc4[nH]3)C3CCNCC3)cc2)c1 (centres unmarked) [Compound 16A]
12,50 to 100,CC(C)(C)OC(=O)N1CCC(C(NCc2nc3cc(Cl)c(Cl)cc3[nH]2)c2ccc(-c3cccc(C#N)c3)cc2)CC1 (centres unmarked) [Compound 15A]
13,> 100,"N#Cc1cccc(-c2ccc(C3(NCc4nc5cc(Cl)c(Cl)cc5[nH]4)CCN(C4CCCC4)CC3)cc2)c1 [Compound 67A, 4′-{1-Cyclopentyl-4-[(5,6-dichloro-1H-benzoimidazol-2-ylmethyl)-amino]-piperidin-4-yl}-biphenyl-3-carbonitrile]"
14,< 20,N#Cc1cccc(-c2ccc(C(NCc3nc4cc(Cl)c(F)cc4[nH]3)C3CCN(CC4CC4)CC3)cc2)c1 (centres unmarked) [Compound 17A]
15,20 to 50,CC(C)(C)OC(=O)N1CCC(C(NCc2nc3cc(F)c(Cl)cc3[nH]2)c2ccc(-c3cccc(C#N)c3)cc2)CC1 (centres unmarked) [Compound 15B]
16,20 to 50,N#Cc1cccc(-c2ccc(C(CCc3nc4cc(Cl)c(F)cc4[nH]3)C3CCN(Cc4ccccc4)CC3)cc2)c1 (centres unmarked) [Compound 75B]
17,< 20,N#Cc1cccc(-c2ccc(C(CNc3nc4cc(Cl)c(Cl)cc4[nH]3)C3CCN(Cc4ccccc4)CC3)cc2)c1 (centres unmarked) [Compound 28A]

# Same assay, conditions: [125I]-MCH displacement, CHO cell membranes; read-out: Ki value
row,Ki [nM],Structure (SMILES)
1,3,N#Cc1cccc(-c2ccc(C(CNc3nc4cc(Cl)c(Cl)cc4[nH]3)C3CCN(Cc4ccccc4)CC3)cc2)c1 (centres unmarked) [Compound 28A]
